Reference: patent US20060263305A1, “Biofilm removing agent for removing a biofilm” (priority 2003, published 2006)

Tests used:
[1] = tested on: biofilm formed by periodontal pathogens; assay: biofilm inhibition ratio (inhibiting formation of the biofilm) in a glass vessel; type: cell-based, periodontal pathogens (gram-negative bacteria); settings: 1 mg in 100 ml distilled water, added together with the pathogens; read after 24 hours; relative to distilled water alone; FIG. 2
Experimental: Periodontal pathogens were put in a glass vessel together with a biofilm removing agent containing 1 mg of azithromycin as a medical agent dissolved in 100 ml of distilled water. After lapse of 24 hours, an inhibition ratio of the biofilm to be formed by the periodontal pathogens was examined.
Further, the biofilm inhibition ratio of the biofilm removing agent containing azithromycin according to this invention was evaluated in comparison with the biofilm inhibition ration of each of minocycline, erythromycin, and josamycin. Specifically, each of minocycline, erythromycin, and josamycin was put into a glass vessel together with periodontal pathogens and distilled water. After lapse of 24 hours, the biofilm inhibition ratio of the biofilm formed by the periodontal pathogens was examined.
The content of each of minocycline, erythromycin, and josamycin in the distilled water was equal to that of the biofilm removing agent containing azithromycin.
In FIG. 2, the biofilm inhibition ratio of each of azithromycin, minocycline, erythromycin, and josamycin is a ratio of a part without the biofilm with respect to an entire biofilm formed by the periodontal pathogens in presence of distilled water alone without any antibiotic.

[2] = compared with 14-membered ring macrolide antibiotics; stated without a test; cited from earlier work
[3] = tested on: biofilm formed by periodontal pathogens; assay: biofilm destruction ratio on a preformed biofilm in a glass vessel; type: cell-based, periodontal pathogens (gram-negative bacteria); settings: 1 mg in 100 ml distilled water; biofilm formed for 24 hours; read after 24 hours; relative to distilled water alone; FIG. 1
Experimental: Periodontal pathogens were put in a glass vessel and left for 24 hours to form a biofilm. Then, a solution of a biofilm removing agent containing 1 mg of azithromycin as a medical agent dissolved in 100 ml of distilled water was supplied into the glass vessel. After lapse of 24 hours, a destruction ratio of the biofilm formed by the periodontal pathogens was examined. Further, the biofilm destruction ratio of the biofilm removing agent containing azithromycin according to this invention was evaluated in comparison with the biofilm destruction ratio of each of minocycline, erythromycin, and josamycin. Specifically, each of minocycline, erythromycin, and josamycin was supplied together with distilled water into a glass vessel in which the biofilm was formed. After lapse of 24 hours, the destruction ratio of the biofilm formed by the periodontal pathogens was examined. The content of each of minocycline, erythromycin, and josamycin in the distilled water was equal to that of the biofilm removing agent containing azithromycin. […] In FIG. 1, the biofilm destruction ratio by each of azithromycin, minocycline, erythromycin, and josamycin is a ratio of a destroyed or lost part of the biofilm with respect to a biofilm formed by the periodontal pathogens and supplied with distilled water alone without any antibiotic.

[4] = tested on: hepatic metabolic enzymes; settings: compared with 14-membered ring macrolide antibiotics; stated without a test; cited from earlier work
[5] = compared with 14-membered ring macrolide antibiotics; stated without a test; cited from earlier work; remark: listed apart in the source

CC[C@H]1OC(=O)[C@H](C)[C@@H](O[C@H]2C[C@@](C)(OC)[C@@H](O)[C@H](C)O2)[C@H](C)[C@@H](O[C@@H]2O[C@H](C)C[C@H](N(C)C)[C@H]2O)[C@](C)(O)C[C@@H](C)CN(C)[C@H](C)[C@@H](O)[C@]1(C)O [azithromycin]
biofilm inhibition ratio (adhesion prevention ratio of gram-negative bacteria) [1]: about 45% | digestive side effect [2]: equivalent | biofilm destruction ratio (destruction ratio of gram-negative bacteria) [3]: about 60% | activation of hepatic metabolic enzymes [4]: extremely small level | stability against gastric acid [5]: considerably stable

CC[C@H]1OC(=O)[C@H](C)[C@@H](O[C@H]2C[C@@](C)(OC)[C@@H](O)[C@H](C)O2)[C@H](C)[C@@H](O[C@@H]2O[C@H](C)C[C@H](N(C)C)[C@H]2O)[C@](C)(O)C[C@@H](C)C(=O)[C@H](C)[C@@H](O)[C@]1(C)O [erythromycin]
biofilm inhibition ratio (adhesion prevention ratio of gram-negative bacteria) [1]: about 40% | biofilm destruction ratio (destruction ratio of gram-negative bacteria) [3]: about 35%

CO[C@@H]1[C@@H](O[C@@H]2O[C@H](C)[C@@H](O[C@H]3C[C@@](C)(O)[C@@H](OC(=O)CC(C)C)[C@H](C)O3)[C@H](N(C)C)[C@H]2O)[C@@H](CC=O)C[C@@H](C)[C@@H](O)/C=C/C=C/C[C@@H](C)OC(=O)C[C@H]1OC(C)=O [josamycin]
biofilm inhibition ratio (adhesion prevention ratio of gram-negative bacteria) [1]: about 35% | biofilm destruction ratio (destruction ratio of gram-negative bacteria) [3]: about 25%

CN(C)c1ccc(O)c2c1C[C@H]1C[C@H]3[C@H](N(C)C)C(O)=C(C(N)=O)C(=O)[C@@]3(O)C(O)=C1C2=O [minocycline]
biofilm inhibition ratio (adhesion prevention ratio of gram-negative bacteria) [1]: about 23% | biofilm destruction ratio (destruction ratio of gram-negative bacteria) [3]: about 10%
